# Patent US7183291B2 (Council of Scientific and Industrial Research, priority 1999, dated 2007)
# Values joined by “and” are separate entries in the source; they are usually repeats but may differ in a detail not shown here. Identical values can stand only once.
# Tests used:
# [1] = system: P. cynomolgi B gametocytes; assay: Gametocytocidal test: infectivity of gametocytes from treated P. cynomolgi infected Rhesus monkeys to An. stephensi mosquitoes; type: in vivo
# Method: For the gametocytocidal test, batches of 3–4 day old An. Stephensi were allowed to feed on P. cynomolgi infected Rhesus monkeys at appropriate gametocytaemia level. […] […] Mosquitoes were maintained as 26±1° C. under optimal insectary conditions. The infectivity rate and the oocyst counts were recorded on day 8. Mosquitoes were further maintained in the insectary to record the formation of sporozoites and the absence of sporozoites in some of the batches was also ensured by inoculation of mosquito homogenates into native monkeys.
# [2] = system: sporozoites; assay: Infectivity test: mosquito homogenates inoculated into Rhesus monkeys; type: in vivo, P. cynomolgi; conditions: 11 batches; 1.87, 2.5, 3.75 and 5.00 mg base/kg; up to 60 days of observations
# Method: For the gametocytocidal test, batches of 3–4 day old An. Stephensi were allowed to feed on P. cynomolgi infected Rhesus monkeys at appropriate gametocytaemia level. One hour after the control (pretreatment) feeding, compound of formula 1 was administered to the monkeys at 0.63, 1.25, 1.87, 2.5, 3.75 and 5.0 mg/kg in a single dose by oral route. Post-treatment feeding of batches of healthy mosquitoes was done at different times (5–48 hours). Mosquitoes were maintained as 26±1° C. under optimal insectary conditions. The infectivity rate and the oocyst counts were recorded on day 8. Mosquitoes were further maintained in the insectary to record the formation of sporozoites and the absence of sporozoites in some of the batches was also ensured by inoculation of mosquito homogenates into native monkeys.
# Infectivity tests were carried out to ensure that there was no sporozoite development in the mosquito batches found negative for oocysts on day 8 following their feeding on drug treated monkeys. Homogenates of 40–50 mosquitoes each from 11 batches fed on gametocyte carrying monkeys treated with compound 1 at 1.87, 2.5, 3.75 and 5.00 mg base/kg were inoculated into native Rhesus monkeys.
# [3] = system: normal erythrocytes; assay: Reduced glutathione (GSH) in normal human erythrocytes after 3 h incubation; type: cell-based
# Excerpt: (§1) Drug induced haemolysis is a serious complication in persons deficient in G-6-PD enzyme. The presence of reduced glutathione (GSH) in erythrocytes control the level of oxidative metabolites. Therefore, drugs, which cause lesser oxidation of GSH level are safe. […] G-6-PD deficiency was detected by the fluorescent spot screening test and confirmed by the enzyme assay method. Heparinised blood samples were collected from each individual and after centrifugation, the packed cells were washed three times with cold saline. […] GSH levels were estimated by the method of Bentler et al [Improved Method for the Determination of Blood Glutathione, J. Lab.
# [4] = system: G-6-PD deficient erythrocytes; assay: Reduced glutathione (GSH) in G-6-PD deficient human erythrocytes after 3 h incubation; type: cell-based; conditions: 25 and 50 μg/ml of PQ and equivalent doses, P<0.001
# Excerpt: as §1
# [5] = system: developing oocysts of P. cynomolgi; assay: Effect on developing oocysts in An. stephensi mosquitoes (sporontocidal/oocysticidal action); type: in vivo; conditions: for % infectivity / No. of mosquitoes infected/dissected / oocyst number gut (Mean ± SD): Day 8 oocyst record
# [6] = Methaemoglobin levels in Beagle dogs after 7-day oral treatment; conditions: dog, in vivo, 1.25 mg/kg
# Method: Colony bred beagle dogs were maintained in the kennel house of the Institute and fed with a standard diet.
# Treatment was administered once daily for seven doses (day 0–6), the day of the first dose being day 0. […] 5 ml. blood was collected from beagle dogs on day 0, 3, 7, 13 and 25 using potassium-oxalate crystals as anticoagulant. All the estimations/tests were conducted on the same day of collection of blood. Methaemoglobin was assayed by the method of Evelyn and Malloy (1938, J. Biol. Chem., 126, 655–662).
# [7] = 0.63 mg/kg single dose, feeding +5 hr
# [8] = 0.63 mg/kg single dose, feeding +24 hr
# [9] = 0.63 mg/kg single dose, feeding +48 hr
# [10] = 0.63 mg/kg single dose, feeding −1 hr (pre-treatment)
# [11] = 1.25 mg/kg single dose, feeding +5 hr
# [12] = 1.25 mg/kg single dose, feeding +24 hr
# [13] = 1.25 mg/kg single dose, feeding +48 hr
# [14] = 1.25 mg/kg single dose, feeding −1 hr (pre-treatment)
# [15] = 1.87 mg/kg single dose, feeding +24 hr
# [16] = 1.87 mg/kg single dose, feeding +48 hr
# [17] = 1.87 mg/kg single dose, feeding −1 hr (pre-treatment)
# [18] = 3.75 mg/kg single dose, feeding +4 hr
# [19] = 3.75 mg/kg single dose, feeding +5 hr
# [20] = 3.75 mg/kg single dose, feeding +24 hr
# [21] = 3.75 mg/kg single dose, feeding −1 hr (pre-treatment)
# [22] = age of infection 24 hr, 50 mg/kg
# [23] = age of infection 48 hr, 10 mg/kg
# [24] = age of infection 48 hr, 50 mg/kg
# [25] = age of infection 72 hr, 10 mg/kg
# [26] = age of infection 72 hr, 50 mg/kg
# [27] = age of infection 96 hr, 50 mg/kg
# [28] = age of infection in mosquitoes 24 hr, fed on monkey given 10 mg/kg at −7 hr
smiles,measurement,setting,value
"COc1cc(NC(C)CCCN/C(C)=C2/CCOC2=O)c2ncccc2c1 (stereo not drawn) [compound 1, N^1-(3-ethylidinotetrahydrofuran-2-one)-N^4-(6-methoxy-8-quinolinyl)-1,4-pentanediamine]",% infectivity,[1]; [7],(45.1) %
same,No. of mosquitoes infected/dissected,[1]; [7],23/51
same,Oocyst No. per gut (Mean ± SD),[1]; [7],10.22 ± 6.8
same,% infectivity,[1]; [8],(32.61) %
same,No. of mosquitoes infected/dissected,[1]; [8],15/46
same,Oocyst No. per gut (Mean ± SD),[1]; [8],2.93 ± 2.4
same,Parasitaemia/mm^3 Asexual,[1]; [8],30024 /mm^3
same,Parasitaemia/mm^3 Gametocytes,[1]; [8],1404 /mm^3
same,% infectivity,[1]; [9],(0) %
same,No. of mosquitoes infected/dissected,[1]; [9],0/24
same,Oocyst No. per gut (Mean ± SD),[1]; [9],Nil
same,Parasitaemia/mm^3 Asexual,[1]; [9],23220 /mm^3
same,Parasitaemia/mm^3 Gametocytes,[1]; [9],756 /mm^3
same,% infectivity,[1]; [10],(90.0) %
same,No. of mosquitoes infected/dissected,[1]; [10],27/30
same,Oocyst No. per gut (Mean ± SD),[1]; [10],86.74 ± 39.2
same,Parasitaemia/mm^3 Asexual,[1]; [10],48816 /mm^3
same,Parasitaemia/mm^3 Gametocytes,[1]; [10],1728 /mm^3
same,oocyst number and percent infectivity compared to control feedings at −1 hr,"[1]; 0.63 mg/kg, +5 h and +24 h post-treatment",significant reduction
same,sporozoites in salivary gland dissections on day 15,"[1]; 0.63 mg/kg, batches fed +5 h and +24 h",presence of sporozoites
same,oocysts over the midguts,"[1]; 0.63 mg/kg, mosquitoes fed at +48 hr",No oocysts were observed
same,monkeys with marked oocyst decrease at 4–5 hr and no oocysts or sporozoites in batches fed +24 hr and +48 hr,[1]; 1.25 mg/kg,2/2
same,No. of mosquitoes infected/dissected,[1]; [11],12/57 and 15/70
same,Oocyst No. per gut (Mean ± SD),[1]; [11],2.17 ± 1.7 and 2.60 ± 1.7
same,% infectivity,[1]; [12],(0) %
same,No. of mosquitoes infected/dissected,[1]; [12],0/36 and 0/30
same,Oocyst No. per gut (Mean ± SD),[1]; [12],Nil
same,% infectivity,[1]; [13],(0) %
same,No. of mosquitoes infected/dissected,[1]; [13],0/24
same,Oocyst No. per gut (Mean ± SD),[1]; [13],Nil
same,Parasitaemia/mm^3 Asexual,[1]; [13],15914 /mm^3
same,Parasitaemia/mm^3 Gametocytes,[1]; [13],109 /mm^3
same,No. of mosquitoes infected/dissected,[1]; [14],34/38 and 20/47
same,Oocyst No. per gut (Mean ± SD),[1]; [14],22.35 ± 11.8 and 14.40 ± 7.29
same,Parasitaemia/mm^3 Gametocytes,[1]; [14],1895 /mm^3 and 1026 /mm^3
same,monkeys with marked oocyst decrease at 4–5 hr and no oocysts or sporozoites in batches fed +24 hr and +48 hr,[1]; 1.87 mg/kg,2/2
same,No. of mosquitoes infected/dissected,"[1]; 1.87 mg/kg single dose, feeding +4 hr",6/40 and 18/31
same,% infectivity,[1]; [15],(0) %
same,No. of mosquitoes infected/dissected,[1]; [15],0/27 and 0/38
same,Oocyst No. per gut (Mean ± SD),[1]; [15],Nil and Nil**
same,Parasitaemia/mm^3 Gametocytes,[1]; [15],530 /mm^3 and 798 /mm^3
same,% infectivity,[1]; [16],(0) %
same,No. of mosquitoes infected/dissected,[1]; [16],0/24 and 0/21
same,Oocyst No. per gut (Mean ± SD),[1]; [16],Nil
same,Parasitaemia/mm^3 Asexual,[1]; [16],7208 /mm^3 and 5130 /mm^3
same,Parasitaemia/mm^3 Gametocytes,[1]; [16],212 /mm^3 and 228 /mm^3
same,No. of mosquitoes infected/dissected,[1]; [17],25/30 and 23/25
same,Parasitaemia/mm^3 Asexual,[1]; [17],33602 /mm^3 and 61560 /mm^3
same,Parasitaemia/mm^3 Gametocytes,[1]; [17],1166 /mm^3 and 1026 /mm^3
same,monkeys with oocyst development completely blocked in batches fed 4–5 hr and +24 hr post-treatment,[1]; 3.75 mg/kg,5/5
same,% infectivity,[1]; [18],(0) %
same,No. of mosquitoes infected/dissected,[1]; [18],0/25 and 0/21 and 0/41
same,Oocyst No. per gut (Mean ± SD),[1]; [18],Nil
same,% infectivity,[1]; [19],(0) %
same,No. of mosquitoes infected/dissected,[1]; [19],0/30
same,Oocyst No. per gut (Mean ± SD),[1]; [19],Nil**
same,% infectivity,[1]; [20],(0) %
same,No. of mosquitoes infected/dissected,[1]; [20],0/28 and 0/21 and 0/30 and 0/27
same,Oocyst No. per gut (Mean ± SD),[1]; [20],Nil and Nil**
same,No. of mosquitoes infected/dissected,[1]; [21],26/27 and 15/22 and 33/40 and 22/22
same,Parasitaemia/mm^3 Asexual,[1]; [21],55728 /mm^3 and 45796 /mm^3 and 68320 /mm^3 and 48336 /mm^3
same,monkeys with oocyst development completely blocked in batches fed 4–5 hr and +24 hr post-treatment,[1]; 5.0 mg/kg,3/3
same,time to render mature gametocytes non-infective to mosquitoes,[1]; 3.75 and 5.00 mg/kg,4 to 5 h
same,"sporozoites in salivary gland dissections, days 14–20 post infective blood meal","[1]; batches with blocked oocyst development (2.5, 3.75, 5.0 mg/kg)",did not show any sporozoites
same,monkeys developing infection after inoculation of homogenates of 40–50 mosquitoes from oocyst-negative batches,[2],None
same,melting point,,118 to 120 °C
same,concentration at which fall in GSH levels reached statistical significance,[3],31250 ng/mL
same,GSH (mg %) Mean ± SE,[3]; dose 1.25 μg/ml,44.08 ± 5.80 mg %
same,GSH (mg %) Mean ± SE,[3]; dose 6.25 μg/ml,42.50 ± 5.85 mg %
same,decrease in GSH level compared to controls,[4],statistically significant
same,sporontocidal/oocysticidal action on 24–96 hr old oocysts,[5]; 10–50 mg/kg,absence of sporontocidal/oocysticidal action
same,% infectivity,[5]; [22],85.19%
same,No. of mosquitoes infected/dissected,[5]; [22],23/27
same,oocyst number gut (Mean ± SD),[5]; [22],67.00 ± 43.58
same,% infectivity,[5]; [23],100.0%
same,No. of mosquitoes infected/dissected,[5]; [23],20/20
same,oocyst number gut (Mean ± SD),[5]; [23],133.20 ± 96.22
same,% infectivity,[5]; [24],78.79%
same,No. of mosquitoes infected/dissected,[5]; [24],26/33
same,oocyst number gut (Mean ± SD),[5]; [24],46.15 ± 36.70
same,% infectivity,[5]; [25],88.00%
same,No. of mosquitoes infected/dissected,[5]; [25],22/25
same,oocyst number gut (Mean ± SD),[5]; [25],20.36 ± 17.81
same,% infectivity,[5]; [26],86.21%
same,No. of mosquitoes infected/dissected,[5]; [26],25/29
same,oocyst number gut (Mean ± SD),[5]; [26],27.16 ± 20.60
same,% infectivity,[5]; [27],69.23%
same,No. of mosquitoes infected/dissected,[5]; [27],18/26
same,oocyst number gut (Mean ± SD),[5]; [27],40.33 ± 27.38
same,% infectivity,[5]; [28],85.00%
same,No. of mosquitoes infected/dissected,[5]; [28],17/20
same,oocyst number gut (Mean ± SD),[5]; [28],144.47 ± 60.35
same,increase of Met-Hb values,[6],1.7 fold
